Laboratory results taken from patent US12453733B2, “Composition for prevention or treatment of intractable epilepsy comprising mTOR inhibitor” (SoVarGen Co., Ltd., priority 2015, dated 2025).
Entries after “also recorded” stand apart in the source; their conditions may differ.

How the values were obtained:
Format in all cases: cell-based, human
[1] = test system: mutant mTOR-expressing HEK293T cells; assay: Western blot of S6/S6K phosphorylation in mutant mTOR-expressing HEK293T cells after drug treatment; conditions: for phosphorylation of S6K in all the mutant mTOR-expressing cells: Y1450D, C1483R, R1709H, Y1977K, S2215F, L2427P, L2427Q
Description: HEK293T cells (Thermo Scientific) was cultured in DMEM (Dulbecco's Modified Eagle's Medium) containing 10% FBS at 37° C. and 5% CO2. The cells were transfected with empty flag-tagged vector, flag-tagged mTOR wild type, and flag-tagged mTOR mutants using jetPRIME transfection reagent (Polyplus, France). The cells were serum-starved with DMEM containing 0.1% FBS for 24 hours after transfection and then incubated at 37° C. and 5% CO2 in PBS containing 1 mM MgCl2 and CaCl2 for 1 hour. The cells were lysed with PBS containing 1% Triton X-100 and Halt protease and phosphatase inhibitor cocktail (78440, Thermo Scientific, USA).
Proteins were resolved by SDS-PAGE and transferred to PVDF membranes (Millipore, USA). The membranes were blocked with 3% BSA in TBS containing 0.1% Tween 20 (TBST). They were washed 4 times with TBST. The membranes were each incubated overnight at 4° C. with primary antibodies including a 1/1000 dilution of anti-phospho-S6 ribosomal protein (5364, Cell Signaling Technology, USA), anti-56 ribosomal protein (2217, Cell Signaling Technology, USA), and anti-flag M2 (8164, Cell Signaling Technology, USA) in TBST. After incubation, the membranes were washed 4 times with TBST. They were incubated with a 1/5000 dilution of HRP-linked anti-rabbit or anti-mouse secondary antibodies (7074, Cell Signaling Technology, USA) for 2 hours at room temperature. After washing with TBST, immunodetection was performed using ECL reaction reagents.
Transfection of mTOR mutants into HEK293T cells was carried out in the same manner as in Example 3-2. Then, the cells were serum-starved with DMEM containing 0.1% FBS for 24 hours and incubated at 37° C. and 5% CO2 in PBS containing 1 mM MgCl2 and CaCl2 for 1 hour, followed by treatment with rapamycin, everolimus, or compounds of Chemical Formulas 1 to 4 (Torinl, INK128, AZD8055, GSK2126458); Torin was purchased from TOCRIS, INK128, AZD8055, and GSK2126458 were provided from Selleckchem, and everolimus was purchased from LC laboratory. Subsequently, Western blotting was performed in the same manner as in Example 9.
Cells expressing various mTOR mutations were treated in the same manner as in Example 3-2 with rapamycin, everolimus, or the compounds of Chemical Formulas 1 to 4 and monitored for S6K phosphorylation. The mTOR mutations were R624H, Y1450D, C1483R, R1709H, Y1977K, S2215F, L2427P, and L2427Q. […]
Cells expressing various mTOR mutations were treated in the same manner as in Example 9-1 with rapamycin, everolimus, or the compounds of Chemical Formulas 1 to 4, and monitored for S6K phosphorylation. […]

[2] = test system: TSC2 mutant-expressing HEK293T cells; assay: Western blot of S6K phosphorylation in TSC2 mutant-expressing HEK293T cells after drug treatment; conditions: Example 11; FIGS. 25a and 25b
Description: (§1) Briefly, HEK293T cells (Thermo Scientific) were cultured in DMEM (Dulbecco's Modified Eagle's Medium) supplemented with 10% FBS at 37° C. and 5% CO2. The cells were transfected with empty flag-tagged vector, HA-tagged TSC1 wild-type, HA-tagged TSC2 wild-type, HA-tagged AKT3 wild-type, HA-tagged TSC1 mutant, HA-tagged TSC2 mutant and HA-tagged AKT3 mutant, respectively, using jetPRIME transfection reagent (Polyplus, France).
(§2) The cells were serum-starved with 0.1% FBS in DMEM for 24 hours after transfection and then incubated at 37° C. and 5% CO2 in PBS containing 1 mM MgCl2 and CaCl2 for 1 hour. The cells were lysed with PBS containing 1% Triton X-100 and Halt protease and phosphatase inhibitor cocktail (78440, Thermo Scientific, USA). Proteins were resolved by SDS-PAGE and transferred to PVDF membranes (Millipore, USA). The membranes were blocked with 3% BSA in TBS containing 0.1% Tween 20 (TBST). They were washed 4 times with TBST. The membranes were incubated overnight with primary antibodies including a 1/1000 dilution of anti-phospho-S6 ribosomal protein (5364, Cell Signaling Technology, USA), anti-56 ribosomal protein (2217, Cell Signaling Technology, USA), and anti-flag M2 (8164, Cell Signaling Technology, USA) in TBST at 4° C., respectively. After incubation, the membranes were washed 4 times with TBST. […]

[3] = test system: TSC1 mutant-expressing HEK293T cells; assay: Western blot of S6K phosphorylation in TSC1 mutant-expressing HEK293T cells after drug treatment; conditions: Example 11; FIGS. 24a and 24b
Description: as §1, §2

SMILES: CO[C@H]1C[C@@H]2CC[C@@H](C)[C@@](O)(O2)C(=O)C(=O)N2CCCC[C@H]2C(=O)O[C@H]([C@H](C)C[C@@H]2CC[C@@H](OCCO)[C@H](OC)C2)CC(=O)[C@H](C)/C=C(\C)[C@@H](O)[C@@H](OC)C(=O)[C@H](C)C[C@H](C)/C=C/C=C/C=C/1C [everolimus]
- phosphorylation of S6K in mutant mTOR-expressing cells ([1]; Example 3-4, HEK293T, Western blot, FIGS. 9a to 9c): inhibited; also recorded: reduce
- phosphorylation of S6K in all the mutant mTOR-expressing cells ([1]; Example 3-5, mutations R624H, FIGS. 13 and 14): inhibited
- phosphorylation of S6 in mutant mTOR-expressing cells ([1]; Example 10-1, FIG. 22, mTOR L2427P-expressing cells): inhibited
- phosphorylation of S6K in all the mutant mTOR-expressing cells ([1]; Example 10-2, variants R624H, FIGS. 23a and 23b): inhibited
- S6K phosphorylation in TSC2 mutant-expressing cells [2]: inhibit
- S6K phosphorylation in TSC1 mutant-expressing cells [3]: inhibit
